pIC50: −log10 of the molar value.
Assays:
[1] = test system: rhIL-17A stimulated G-CSF production in normal human keratinocytes (NHK); assay: NHK G-CSF assay with rhIL-17A stimulation; type: cell-based; settings: for inhibition of IL-17 stimulated G-CSF production: concentrations tested, FIGS. 2A and 2C; for dose dependent G-CSF levels: various doses, FIG. 3
[2] = test system: TNFa secretion by LPS stimulated hPBMCs; settings: Wadsworth et al. 1999, read-out: IC50 (Literature), inhibition of TNFa secretion; cited from earlier work
[3] = test system: IL-17A-stimulated gene panel in NHKs; assay: QuantiGene Plex gene panel expression, NHK stimulated with recombinant IL-17A; type: cell-based, human; settings: NHKs stimulated with recombinant IL-17A, FIGS. 5A and 5B
Protocol: (§1) A panel of IL-17A-stimulated genes was identified, initially through microarray experiments and later confirmed by RT-PCR, to assess modulators of the IL-17 pathway as shown in Table 2. Expression levels of the genes in the panel were measured using QuantiGene® Plex Gene Expression assay in human keratinocytes treated with human recombinant IL-17A and compounds as described in Example 1.
After the 24 hour incubation with IL-17A with and without compounds, 50 μl Lysis buffer (QuantiGene, ThermoFisher) was added to each well containing 100 μl cells. The plate was covered and incubated for 30 minutes in a VorTemp set at 50-55° C., 170 rpm to lyse the cells. The plate was then kept frozen at −80° C. On the day of QuantiGene experiments, samples and reagents were prepared and assay was conducted according the manufacturer's protocol (QuantiGene, ThermoFisher). At the final step, the sample plate was read on a Luminex MagPix® instrument (Luminex; Austin, Tex.) for fluorescent intensity signals.
The raw expression value of a given gene (g) in a sample (S) was quantified as the median of raw fluorescent intensity of the corresponding probe. Normalization factor of each sample S was determined by the raw expression of four housekeeping genes, ACTB, GAPDH, HPRT1, and PPIB, as the ratio of the geometric mean (geomean) of the four housekeeping genes in sample S vs. the geomean of the four housekeeping genes among all samples. The normalized expression value of each gene in sample S was further quantified as the raw expression value divided by the normalization factor in sample S.
Changes in expression of gene g in keratinocytes in response to IL-17A stimulation was calculated as the ratio of the geomean of its normalized expression values in IL-17A stimulated samples vs. that in unstimulated samples. For each gene g, the relative expression value in sample S (Rel_Exp_S) was further determined by its normalized expression in sample S (Norm_Exp_S) and the geomeans of its normalized expression in IL-17A stimulated samples (GM_Norm_Exp_Stim) and unstimulated samples (GMNorm_Exp_UnStim), using formula as: Rel_Exp_S=(Norm_Exp_S−GM_Norm_Exp_UnStim)/(GM_Norm_Exp_Stim−GM_Norm_Exp_UnStim).

[4] = test system: IL-β secretion by LPS stimulated hPBMCs; settings: Wadsworth et al. 1999, read-out: IC50 (Literature), inhibition of IL-β secretion; cited from earlier work
[5] = test system: normal human keratinocytes (NHK); assay: CellTiter-Glo Luminescent Cell Viability Assay of NHK cells; type: cell-based; settings: FIG. 2B
Protocol: To test whether treatment with IL-17 or compounds affected cell viability, cells were tested with CellTiter-Glo® Luminescent Cell Viability Assay (Promega; Madison, Wis.) according to manufacturer's protocol.
The substrate vial and the buffer solution were equilibrated at room temperature before reconstitution. The lyophilized substrate solution was reconstituted by adding the appropriate volume of buffer to the substrate vial. After brief mixing, equal volumes of the reconstituted reagent were added to the volume of media in each well of the plate containing cells. The plate was shaken briefly to mix and incubated at room temperature for 10 minutes then luminescent signal was read using an Envision plate reader.
Percent cell viability was calculated as:
% viability=((Sample RLU/No stimulation Avg,RLU)*100).

[6] = test system: Th17 conditioned media stimulated gene panel in NHKs; assay: QuantiGene Plex gene panel expression, NHK stimulated with Th17 conditioned media; type: cell-based, human; settings: FIG. 6
Protocol: (§2) Peripheral blood mononuclear cells (PBMCs) were isolated from human whole blood using Ficoll-Paque density gradient centrifugation (Ficoll-Paque, GE, 17-1440-03) using SepMate tubes (StemCell technologies, 85450). […] CD4+ T cells were isolated through manual magnetic labeling and cell separation (LS column, Miltenyi Biotec, 130-042-401) following vendor protocol (Miltenyi Biotec, 130 533). CD4+ T cells were seeded on 24-well plates at 2×10^6 cells/mL in 500 μL of RPMI Media (RPMI 1640, Hyclone, SH30096.01) supplemented with 10% FBS, penicillin-streptomycin (Sigma, P0781-100 ml), L-glutamine (Sigma, G7513-100ML), and 2-Mercaptoethanol (Gibco, 21985-023). […] The level of human IL-17A in Th17 conditioned media was determined using DuoSet ELISA kits following the vendor protocol (R&D Systems, DY317-05, DY5194-05, DY1335B-05). Human IL-17A was detected in Th17 conditioned media, while unstimulated, undifferentiated CD4+ T cells had no detectable level of IL-17A in the supernatant (FIG. 1).
as §1, with “1. […]” for “1.”

[7] = test system: Th17 conditioned media stimulated G-CSF production in normal human keratinocytes (NHK); assay: NHK G-CSF assay with Th17 conditioned media stimulation; type: cell-based; settings: for inhibition of G-CSF production: NHK, Th17 conditioned media, FIG. 4A; for pIC50: Th17 conditioned media stimulated NHK (footnote 15)
Protocol: In order to test potential modulators of the IL-17 pathway, normal human keratinocytes (NHK) were incubated with either recombinant IL-17A or Th17 conditioned media and potential inhibitor compounds, and then levels of granulocyte colony-stimulating factor (G-CSF) in the cell supernatant were measured as described in detail below.
as §2, with “21985-023). Th17 polarization media was prepared in RPMI media and 250 μL was added to each well at a final concentration of: anti-CD3/anti-CD28 beads, prepared using T cell activation/expansion kit (Miltenyi Biotec, 130-091-441), at 2× cell number per well, anti-human interleukin-4 (IL-4) [10 ug/mL], anti-human interferon gamma (IFNγ) [10 ug/mL] antibodies (ThermoFisher, 16-7048-85, 16-7318-85), human IL-2 [60 U/mL] (Pepro Tech, 200-02), human IL-1β [10 ng/mL], human IL-23 [10 ng/mL], human IL-6 [50 ng/mL], and human TGFβ [12 ng/mL] (R&D Systems, 201-LB-010, 1290-IL-010, 206-IL-010, 240-B-010).” for “21985-023).”, “1). […]” for “1).”
After overnight culture, cell supernatant was carefully collected for G-CSF detection, and cells were further analyzed for viability or gene expression
G-CSF levels were measured using the Human G-CSF Homogeneous Time Resolved Fluorescence (HTRF) Assay kit (Cisbio, Cat. No. 63ADK055PEB1; Codolet, France) according to the manufacturer's protocol. G-CSF is detected in a sandwich assay format using different specific antibodies, one labeled with Eu3+-Cryptate (donor) and the second with d2 (acceptor). When the dyes are in close proximity, the excitation of the donor with a light source (laser or flash lamp) triggers a Fluorescence Resonance Energy Transfer (FRET) towards the acceptor, which in turn fluoresces at a specific wavelength (665 nm). […]

[8] = Homo sapiens, Keratinocyte, rhIL-17A stimulated NHK assay (footnote 14), 5 ng/ml rhIL-17A
[9] = rhIL-17A stimulated NHK assay (footnote 14), 5 ng/ml rhIL-17A

Row | Compound | pIC50 [1, 8] | expression of the gene panel [3] | inhibition of IL-17 stimulated G-CSF production ([1]; NHK, rhIL-17A) | dose dependent G-CSF levels ([1]; NHK, rhIL-17A) | expression of the gene panel [6] | inhibition of G-CSF production [7] | pIC50 [7] | pIC50 [1, 9] | other results
1 | Cc1nonc1C(=O)N[C@H](c1cn2ncc([C@H](NC(=O)CCC(F)(F)F)C3CC3)cc2n1)C1CCC(F)(F)CC1 (stereo in doubt) [IL-17Ai-3] | 7.14 | – | – | – | – | – | – | – | –
2 | O=C(CCC(F)(F)F)N[C@@H](c1ccn2cc([C@@H](NC(=O)c3conc3CCC(F)(F)F)C3CCC(F)(F)CC3)nc2n1)C1CC1 [IL-17Ai-5] | 7.06 | – | – | – | – | – | – | – | –
3 | OCCC#Cc1nc(-c2ccc(F)cc2)c(-c2ccncc2)n1CCCc1ccccc1 [Modulator P38i, RWJ 67657] | – | did not lead to an overall reduction in expression of the gene panel | did not inhibit | does not inhibit G-CSF levels | – | – | – | – | pIC50 [2]: 8.52; pIC50 [4]: 7.96
4 | Cc1nc(Nc2n[nH]c3c2CN(C(=O)N[C@H](CN(C)C)c2ccccc2)C3(C)C)c2sccc2n1 [PAKi, PF-3758309] | – | did not lead to an overall reduction in expression of the gene panel | did not inhibit | some dose-dependent inhibition of G-CSF production with much lower potency compared to IL-17A inhibitors | – | – | – | – | cell toxicity ([5]; highest dose of 20 μM): toxic to the cells; cell toxicity ([5]; tested concentrations other than 20 μM PAK inhibitor): well tolerated; pIC50 ([1]; Homo sapiens, Keratinocyte): 5.64; G-CSF production ([1]; NHK, rhIL-17A, highest dose of 20 μM): reduced G-CSF production
5 | Brodalumab | – | inhibited expression of the gene panel in a dose-dependent manner | inhibited G-CSF production at all concentrations tested | – | inhibited expression of the gene panel in a dose-dependent manner | inhibited G-CSF production | 10.09 | 10.15 | –
6 | Secukinumab | – | inhibited expression of the gene panel in a dose-dependent manner | inhibited G-CSF production at all concentrations tested | – | inhibited expression of the gene panel in a dose-dependent manner | inhibited G-CSF production | 9.70 | 9.70 | –

Reference: patent US20230167497A1, “METHODS OF IDENTIFYING MODULATORS OF THE IL-17 PATHWAY” (Janssen Pharmaceutica NV, priority 2020, published 2023)
